# Reference: ChEMBL document CHEMBL1201862, “PubChem BioAssay data set” (2004)
#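 These data come from cells grown in 96-well plates and exposed to compound for 48 hours at five concentrations. The concentration for 50% growth inhibition is given as GI50.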 Activity calls are given as the source filed them. No stated cut-off is given here; in the data, active = GI50 up to about 1.1 µM and inactive = higher.
# Assays:
# Assay in all cases: inhibition of tumour cell growth, NCI panel, 48 h
# [1] = system: 786-0
# [2] = system: A498
# [3] = system: A549
# [4] = system: ACHN
# [5] = system: BT-549
# [6] = system: CAKI-1
# [7] = system: COLO 205
# [8] = system: DU-145
# [9] = system: EKVX
# [10] = system: HCT-116
# [11] = system: HCT-15
# [12] = system: HL-60
# [13] = system: HOP-62
# [14] = system: HOP-92
# [15] = system: HT-29
# [16] = system: IGROV-1
# [17] = system: K562
# [18] = system: KM12
# [19] = system: LOX IMVI
# [20] = system: M14
# [21] = system: MCF7
# [22] = system: MDA-MB-231
# [23] = system: MDA-MB-435
# [24] = system: MDA-N
# [25] = system: MOLT-4
# [26] = system: Malme-3M
# [27] = system: NCI-H226
# [28] = system: NCI-H23
# [29] = system: NCI-H460
# [30] = system: NCI-H522
# [31] = system: NCI/ADR-RES
# [32] = system: OVCAR-3
# [33] = system: OVCAR-4
# [34] = system: OVCAR-5
# [35] = system: OVCAR-8
# [36] = system: PC-3
# [37] = system: RPMI-8226
# [38] = system: SF-268
# [39] = system: SF-295
# [40] = system: SF-539
# [41] = system: SK-MEL-28
# [42] = system: SK-MEL-2
# [43] = system: SK-MEL-5
# [44] = system: SK-OV-3
# [45] = system: SN12C
# [46] = system: SNB-19
# [47] = system: SR
# [48] = system: SW-620
# [49] = system: T47D
# [50] = system: TK-10
# [51] = system: U-251
# [52] = system: UACC-257
# [53] = system: UACC-62
# [54] = system: UO-31
smiles,measurement,setting,value
S=C(S)NCCCn1ccnc1,GI50,[1],> 100 µM (inactive)
same,GI50,[2],> 100 µM (inactive)
same,GI50,[3],> 100 µM (inactive)
same,GI50,[4],> 100 µM (inactive)
same,GI50,[5],> 100 µM (inactive)
same,GI50,[6],> 100 µM (inactive)
same,GI50,[7],> 100 µM (inactive)
same,GI50,[8],> 100 µM (inactive)
same,GI50,[9],> 100 µM (inactive)
same,GI50,[10],> 100 µM (inactive)
same,GI50,[11],> 100 µM
same,GI50,[12],> 100 µM (inactive)
same,GI50,[13],> 100 µM (inactive)
same,GI50,[14],> 100 µM (inactive)
same,GI50,[15],> 100 µM (inactive)
same,GI50,[16],> 100 µM (inactive)
same,GI50,[17],> 100 µM (inactive)
same,GI50,[18],> 100 µM (inactive)
same,GI50,[19],> 100 µM (inactive)
same,GI50,[20],> 100 µM (inactive)
same,GI50,[21],> 100 µM (inactive)
same,GI50,[22],> 100 µM (inactive)
same,GI50,[23],> 100 µM (inactive)
same,GI50,[24],> 100 µM (inactive)
same,GI50,[25],> 100 µM (inactive)
same,GI50,[26],> 100 µM (inactive)
same,GI50,[27],> 100 µM (inactive)
same,GI50,[28],> 100 µM (inactive)
same,GI50,[29],> 100 µM (inactive)
same,GI50,[30],> 100 µM (inactive)
same,GI50,[31],> 100 µM (inactive)
same,GI50,[32],> 100 µM (inactive)
same,GI50,[33],> 100 µM (inactive)
same,GI50,[34],> 100 µM (inactive)
same,GI50,[35],> 100 µM (inactive)
same,GI50,[36],> 100 µM (inactive)
same,GI50,[37],> 100 µM (inactive)
same,GI50,[38],> 100 µM (inactive)
same,GI50,[39],> 100 µM (inactive)
same,GI50,[40],> 100 µM (inactive)
same,GI50,[41],> 100 µM (inactive)
same,GI50,[42],> 100 µM (inactive)
same,GI50,[43],> 100 µM (inactive)
same,GI50,[44],> 100 µM (inactive)
same,GI50,[45],> 100 µM (inactive)
same,GI50,[46],> 100 µM (inactive)
same,GI50,[47],> 100 µM (inactive)
same,GI50,[48],> 100 µM (inactive)
same,GI50,[49],> 100 µM (inactive)
same,GI50,[50],> 100 µM (inactive)
same,GI50,[51],> 100 µM (inactive)
same,GI50,[52],> 100 µM (inactive)
same,GI50,[53],> 100 µM (inactive)
same,GI50,[54],> 100 µM (inactive)
